Test results taken from PubChem BioAssay (NCI).
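Growth conditions: 96-well plates. Treatment: test compound, 48 hours, 5 concentrations. Analysis: linear interpolation between bracketing concentrations; unreached endpoints set to highest concentration. Definition used: TGI = concentration required for complete inhibition of growth.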

What was measured:
Assay in all cases: growth of human tumour cells (NCI), 48 h
SK-MEL-2 melanoma = test system: SK-MEL-2 melanoma
BT-549 breast = test system: BT-549 breast
COLO 205 colon = test system: COLO 205 colon
M14 melanoma = test system: M14 melanoma
SNB-75 CNS = test system: SNB-75 CNS
SF-268 CNS = test system: SF-268 CNS
MALME-3M melanoma = test system: MALME-3M melanoma
MCF7 breast = test system: MCF7 breast
HT29 colon = test system: HT29 colon
EKVX NSCLC = test system: EKVX NSCLC
SW-620 colon = test system: SW-620 colon
RPMI-8226 leukemia = test system: RPMI-8226 leukemia
SK-MEL-5 melanoma = test system: SK-MEL-5 melanoma
K-562 leukemia = test system: K-562 leukemia
OVCAR-5 ovarian = test system: OVCAR-5 ovarian
UO-31 renal = test system: UO-31 renal
UACC-257 melanoma = test system: UACC-257 melanoma
LOX IMVI melanoma = test system: LOX IMVI melanoma
CAKI-1 renal = test system: CAKI-1 renal
SF-539 CNS = test system: SF-539 CNS
HCT-116 colon = test system: HCT-116 colon
U251 CNS = test system: U251 CNS
SK-MEL-28 melanoma = test system: SK-MEL-28 melanoma
DU-145 prostate = test system: DU-145 prostate
NCI-H23 lung = test system: NCI-H23 lung
CCRF-CEM leukemia = test system: CCRF-CEM leukemia
HOP-92 NSCLC = test system: HOP-92 NSCLC
OVCAR-3 ovarian = test system: OVCAR-3 ovarian
OVCAR-4 ovarian = test system: OVCAR-4 ovarian
IGROV1 ovarian = test system: IGROV1 ovarian
A498 renal = test system: A498 renal
TK-10 renal = test system: TK-10 renal
SNB-19 CNS = test system: SNB-19 CNS
MDA-MB-435 = test system: MDA-MB-435
KM12 colon = test system: KM12 colon
HL-60(TB) leukemia = test system: HL-60(TB) leukemia
PC-3 prostate = test system: PC-3 prostate
OVCAR-8 ovarian = test system: OVCAR-8 ovarian
UACC-62 melanoma = test system: UACC-62 melanoma
SF-295 CNS = test system: SF-295 CNS
RXF 393 renal = test system: RXF 393 renal
SK-OV-3 ovarian = test system: SK-OV-3 ovarian
NCI/ADR-RES ovarian = test system: NCI/ADR-RES ovarian
SN12C renal = test system: SN12C renal
NCI-H522 lung = test system: NCI-H522 lung
786-0 renal = test system: 786-0 renal
HS 578T breast = test system: HS 578T breast
T-47D breast = test system: T-47D breast
HOP-62 NSCLC = test system: HOP-62 NSCLC
NCI-H460 lung = test system: NCI-H460 lung
ACHN renal = test system: ACHN renal
MDA-MB-231 breast = test system: MDA-MB-231 breast
HCT-15 colon = test system: HCT-15 colon
A549 NSCLC = test system: A549 NSCLC
HCC-2998 colon = test system: HCC-2998 colon
MDA-N = test system: MDA-N
MOLT-4 leukemia = test system: MOLT-4 leukemia
NCI-H226 lung = test system: NCI-H226 lung

Measured: TGI

CC1CC2(OC2C)C(=O)OC2CCN(C)C/C=C(/COC(=O)C1(C)O)C2=O (stereo not given)
not listed: MOLT-4 leukemia | NCI-H226 lung
> 100 µM: all other assays above

CCSc1n/c(=C\c2ccc(N(C)C)cc2)c2nnnn12
not listed: K-562 leukemia | UO-31 renal | LOX IMVI melanoma | SF-539 CNS
> 100 µM: all other assays above
